Results taken from patent US20120237533A1, “Compositions and Methods for Inducing Apoptosis in Prostate Cancer Cells” (priority 2009, published 2012).

How the values were obtained:
[1] = tested on: Prostate cancer C42 cells; test: Apoptosis assays: caspase-3 activity and time lapse video recording; type: cell-based; conditions: for concentration at which maximal caspase activation is achieved: comparison of PI3K inhibitors
Protocol: FIG. 6. […] Prostate cancer C42 cells were treated with 10 nM of TGFα-pseudomonas exotoxin chimera (PE) and 500 nM PI3K inhibitor ZSTK474 (ZSTK) or PI3K inhibitor LY294002 (LY) individually and in combination. A) Caspase activity was measured 3 h and 6 h after treatments began; B) Time lapse video-recording of C42 cells treated with 10 nM PE or combination of 10 nM PE and 500 nM ZSTK474. Representative images taken 2, 5, and 14 h after treatments began; C) Caspase activity measured 6 h after cells were treated with increasing concentrations of PE and 25 mcM of LY294002 (LY).
Western blotting—Tumors were excised, homogenized on ice in lysis buffer [10% glycerol, 50 mM PIPES-KOH (pH 7.4), 5 mM EDTA, 1% NP40, 1 mM DTT, protease and phosphatase inhibitors;] centrifuged 10 min 14,000 G to precipitate unsoluble fraction. Soluble fraction was resolved by SDS-PAGE followed by Western blotting on nitrocellulose. Nitrocellulose membranes were probed with antibodies to Akt and phospho-Akt according to manufacturer's instructions; the appropriate secondary antibodies were then applied and positive signals detected by enhanced chemiluminescence. Immunofluorescence—Cells were plated on glass coverslips in 6-well plates and treated and fixed with 10% formalin in PBS (pH 7.4) for 15 min. The cells were then blocked in 2.5% goat serum in PBS-T for 30 min at 37° C. Blocking solution was used to prepare a 1:300 mixture of mouse-J591 anti-PSMA antibodies subsequent procedures were done at room temperature. Incubation with primary antibodies was continued for 3 h. The cells were then washed three times with PBS-T and incubated with a mixture of goat antimouse antibodies conjugated with fluorescein, diluted in blocking solution at a ratio of 1:300 each. One h later, cells were washed with PBS-T, stained with DAPI, and mounted on glass microscope slides. Image analysis was done on a Nikon microscope equipped with a digital camera and software from Inovision (Durham, N.C.). Tumor Implantations—Nude mice (BALB/cAnNCrj-nu from Charles River) received four subcutaneous injections or two intratibial injections of 2×10^6 cells with Matrigel. Injections were made using an insulin syringe and a 27 gauge needle. All manipulations with animals were conducted in humane manner, in strict adherence with a protocol approved by institutional ACUC, which was designed to minimize animal suffering. Luminescence Imaging—Tumor growth was analyzed with a Xenogen IVIS® 100 optical imaging system (Caliper Life Sciences, Hopkinton, Mass.). Animals were immobilized for substrate injection and imaging through an attached gas anesthesia system consisting of 2% isoflurane/O2. To account for background and nonspecific luminescence, mice were imaged before injection of […]. Animals were injected with 100 μl of the firefly luciferase substrate luciferin (3.5 mg/ml in PBS) and imaged 15 minutes later in prone and supine positions (5 minutes each). Whole-body images were obtained using the Living Image® software provided with imaging system. A gray-scale photographic image and the bioluminescent color image are superimposed to provide anatomic registration of the light signal. A region of interest (ROI) was manually selected over the luminescent signal, and the intensity was recorded as photons/second within an ROI. Apoptosis Assays—Apoptosis in whole cell populations was quantified by measuring caspase-3 activity with the fluorogenic substrate Ac-DEVD-7-amido-4-trifluoromethyl-coumarin (Bachem) as specified by the manufacturer. For these experiments, attached and floating cells were collected and lysed in caspase lysis buffer (1% Nonidet P-40, 150 mM NaCl, 20 mM HEPES, 1 mM EDTA, 1 mM dithiothreitol, and 5 μg/ml aprotinin, leupeptin, and pepstatin). Fluorescence was recorded each 15 min for 1 h, and caspase activity was expressed in arbitrary units. […]

[2] = tested on: subcutaneous xenograft tumors; test: Luminescence imaging of subcutaneous xenograft tumors injected with LY294002; type: in vivo, mice; conditions: injections into subcutaneous xenograft tumors, versus DMSO
Description: (§1) FIG. 4A) Representative luminescent images (superimposed on black and white images) of mice injected with solvent (DMSO) or LY294002. Injection site is indicated by arrow. FIG. 4B) Changes in luminescence of subcutaneous xenograft tumors injected with LY294002 or DMSO (error bars show standard deviations between 3 tumors injected with each agent). FIG. 4C) Tissue sections of xenograft tumors. Arrowheads point at apoptotic cells. FIG. 4D) Inhibition of Akt phosphorylation in xenografts injected with LY294002. Western blotting of tumor lysates.
(§2) Western blotting—Tumors were excised, homogenized on ice in lysis buffer [10% glycerol, 50 mM PIPES-KOH (pH 7.4), 5 mM EDTA, 1% NP40, 1 mM DTT, protease and phosphatase inhibitors;] centrifuged 10 min 14,000 G to precipitate unsoluble fraction. […] Nitrocellulose membranes were probed with antibodies to Akt and phospho-Akt according to manufacturer's instructions; the appropriate secondary antibodies were then applied and positive signals detected by enhanced chemiluminescence. […] Luminescence Imaging—Tumor growth was analyzed with a Xenogen IVIS® 100 optical imaging system (Caliper Life Sciences, Hopkinton, Mass.). […] To account for background and nonspecific luminescence, mice were imaged before injection of luciferase. […] Fluorescence was recorded each 15 min for 1 h, and caspase activity was expressed in arbitrary units. […]

PI3K [3] = test: Western blotting of tumor lysates for Akt phosphorylation; type: in vivo, mice; conditions: xenografts injected with LY294002
Description: as §1, §2

PI3K [4] = conditions: J. Natl. Can. Inst. 2006, 98, 545-556; cited from earlier work

Structure (SMILES)	induction of apoptosis ([1]; 25 μM LY294002 in combination with 10 nM of TGFαPE40 fusion)	induction of apoptosis (caspase activity) ([1]; C42 cells, 25 mcM LY294002 with increasing concentrations of PE, 6 h)	concentration at which maximal caspase activation is achieved [1]	tumor growth (luminescence of xenograft tumors) [2]	PI3K activity (Akt phosphorylation in xenografts) (PI3K [3])	induction of apoptosis ([1]; 0.5 μM of ZSTK474 in combination with 10 nM of TGFαPE40 fusion)	induction of apoptosis (caspase activity, time lapse video) ([1]; C42 cells, 500 nM ZSTK474 with 10 nM TGFα-pseudomonas exotoxin chimera (PE), 3 h and 6 h)	PI3K inhibition relative to LY294002 (PI3K [4])
O=c1cc(N2CCOCC2)oc2c(-c3ccccc3)cccc12 [LY294002]	maximal induction of apoptosis	synergistic induction of apoptosis	25 µM	inhibit	inhibit PI3K activity	–	–	–
FC(F)c1nc2ccccc2n1-c1nc(N2CCOCC2)nc(N2CCOCC2)n1 [ZSTK474]	–	–	0.5 µM	–	–	maximal induction of apoptosis	synergistic induction of apoptosis	more efficiently than LY294002
Cn1c(=O)n(-c2ccc(C(C)(C)C#N)cc2)c2c3cc(-c4cnc5ccccc5c4)ccc3ncc21 [BEZ235]	–	–	5 µM	–	–	–	–	–
